Experimental data as given in publication PMC7822874, “Chemoprotective antimalarials identified through quantitative high-throughput screening of Plasmodium blood and liver stage parasites” (Scientific Reports, 2021).

Tested on: Plasmodium falciparum Dd2 asexual blood stage parasites
Test: microbe, parasite or virus in culture
Parameters: species or system Plasmodium falciparum Dd2 in human erythrocytes; single determination (one 11-point concentration-response curve)
Conditions: Plasmodium falciparum, DD2, Erythrocyte, 72 h; read-out: AC50

SMILES	AC50 [µM]
CCOc1ccccc1CN1CCC2(CCN(CCC(C)C)CC2)Oc2ccccc21 [NCGC00478188-01]	3.35
CCCCN(CC)CCNC(S)=Nc1ccc2nc(N3CCN(C)CC3)cc(C)c2c1 [MLS001197626-01]	5.96
OC(c1ccc(Cl)cc1)C(CN1CCOCC1)c1ccccc1 (stereo not shown) [MLS001173582-01]	2.99
Cc1ccc(NC(=O)c2c(C)oc3ccc(O)c(CN4CCCCCC4)c23)c(C)c1 [NCGC00115658-01]	4.73
Cc1cc(OC2CN([S+](=O)([O-])c3cccs3)C2)ccc1F [NCGC00476695-01]	15.3
O=C(NCC1CCCCC1)C12CN(Cc3ccccc3)CC1C(c1cccc([N+](=O)[O-])c1)=NO2 (stereo not shown) [MLS000561441-01]	6.68
COc1ccc(-c2noc(-c3cccn3CC(=O)Nc3ccc(C)cc3C)n2)cc1F [NCGC00445492-01]	10.6
CC(Oc1ccccc1)C(=O)Nc1nc(-c2ccccn2)cs1 (stereo not shown) [MLS002158763-01]	8.41
CCn1cc(CN2CCC(N3CC(OCC4CC4)C34CCCCC4)CC2)cn1 (stereo not shown) [NCGC00463414-01]	8.41
CCOC(=O)N1CCC(NC(=O)c2ccc3c(c2)N(Cc2ccccc2)C(=O)c2ccccc2[S+]3[O-])CC1 (stereo not shown) [NCGC00109348-01]	13.3
N=c1c2c3c(sc2ncn1Nc1ccccc1)CCC3 [MLS000858994-01]	3.35
CCOC(=O)c1c(CN2CCCCC2)n(C)c2cc(Br)c(O)cc12 [MLS000523143-01]	7.5
COc1cc(C)ccc1OCCSc1nc2ccc(NC(=O)c3ccc(F)cc3)cc2s1 [NCGC00118562-01]	10.6
COc1ccc2nc(N(Cc3cccnc3)C(=O)CCc3ccccc3)sc2c1 [NCGC00136611-01]	6.68
Cc1cccc(OCCSc2nc3ccc(NC(=O)c4cccs4)cc3s2)c1 [NCGC00118842-01]	9.44
COc1cccc(-c2cc(C(=O)Nc3cc(Cl)ccc3O)on2)c1 [NCGC00121773-01]	4.73
O=C1CC(c2ccccc2)N(C(=O)CNC(=O)c2n[nH]c3c2CCc2ccccc2-3)CCCCCCN1 (stereo not shown) [NCGC00467449-01]	2.99
COc1ccc(-c2cnc3[nH]cc(CC(=O)NCc4cccnc4)c3c2)cn1 [NCGC00412433-01]	6.85
CCCn1c(C)cnc1CC1CCCN([S+](=O)([O-])c2cc(OC)ccc2OC)C1 (stereo not shown) [NCGC00469684-01]	10.6
COc1cc(/C=C(\C#N)c2nc3ccccc3[nH]2)cc(Cl)c1OCc1ccccc1Cl [NCGC00102602-01]	5.31
Cc1nc2sc(C(c3ccco3)N3CCN(C(c4ccccc4)c4ccccc4)CC3)c(O)n2n1 (stereo not shown) [MLS000101802-01]	5.96
CC(C)c1ccc(-c2noc(SCC(=O)N3CCN(c4ccc(F)cc4)CC3)n2)cc1 [NCGC00127934-01]	0.668
CCOC(=O)c1cc(-c2ccc(OC)cc2)n(CCC(=O)Nc2cccc(C(C)=O)c2)c1C [NCGC00140940-01]	0.211
CCN1CCN(C(=O)c2ccc(-c3nnc4ccc(NC(=O)C5CC5)cn34)cc2)CC1 [NCGC00429842-01]	6.68
CC(=O)Nc1cc(-c2ccccc2)ccc1O [MLS000030849-01]	4.73
Cc1ccc(NC(=O)c2c(C)oc3ccc(O)c(CN4CCCCCC4)c23)cc1 [NCGC00115683-01]	2.11
CC(Oc1ccc(F)cc1)C(=O)Nc1cc(Cl)ccc1-n1cncn1 (stereo not shown) [MLS001157608-01]	6.68

SMILES	AC50 [µM]
OC(COc1ccccc1CNCCc1ccccc1)CN1CCSCC1 (stereo not shown) [NCGC00427853-01]	2.11
O=C1CC2(CCN([S+](=O)([O-])c3cccc(C(F)(F)F)c3)CC2)Oc2ccccc2N1c1ccccc1 [NCGC00478390-01]	6.68
Cc1ccc(Oc2c(C(F)(F)F)oc3c(CN4CCC(C)CC4)c(O)ccc3c2=O)cc1 [NCGC00101480-01]	1.68
CC(C)CNC(=O)C(C)(C)Oc1nn(CC2CC2)c2ccc(CN3CCCC3)cc12 [NCGC00419534-01]	19.3
CSc1cccc(NC(=O)Cn2c(-c3ccc(F)cc3)nc(C)c(CCO)c2=O)c1 [NCGC00470986-01]	13.3
O=C1CO[C@H]2CCN(Cc3ccc4c(c3)CCO4)CC[C@@H]2N1Cc1ccccc1 [NCGC00409937-01]	17.2
O=c1cc(-c2cccnc2)oc2c(-c3ccccc3Oc3ccccc3)nccc12 [NCGC00416761-01]	17.2
COc1cccc(CNCCSc2nnnn2C)c1OCc1ccc(Cl)cc1 [NCGC00103033-01]	2.66
COc1ccccc1N1CCN(C(=O)CSc2nc(-c3ccc(C(C)C)cc3)no2)CC1 [NCGC00127900-01]	0.376
Cc1ccccc1NC(=O)c1cc2c(-c3ccccc3)nn(-c3ccccc3)c2s1 [NCGC00102094-01]	11.9
O=C(C1=C[C@H](c2csc3ccccc23)C[C@H](OCCCCO)O1)N1CCN(Cc2ccc3c(c2)OCO3)CC1 [MLS000834451-01]	13.3
COc1cc(F)ccc1CNCc1cccnc1N1CCOCC1 [NCGC00425822-01]	10.6
COc1ccc(C)cc1-n1c(-c2ccc(Cl)cc2)cc2c1CC(C)(C)CC2=O [NCGC00110344-01]	2.99
CCNc1nc(NCc2ccccc2)nc(Oc2ccc(=O)[nH]n2)n1 [MLS000097254-01]	2.11
CCOC(=O)c1c(CN2CCOCC2)n(-c2ccccc2)c2cc(Br)c(O)cc12 [MLS000530556-01]	2.99
CC1(c2ccccc2)O[C@@H]2C[C@H]3[C@@H]4CCC5=CC(=O)C=C[C@]5(C)[C@@]4(F)[C@@H](O)C[C@]3(C)[C@]2(C(=O)CO)O1 (stereo partly shown) [MLS000738166-01]	4.73
COc1ccc(-c2cc(-c3cccc(NC(C)=O)c3)cn3cncc23)cn1 [NCGC00412201-01]	21.7
CCN(Cc1ccccc1)Cc1c(O)ccc2oc(C)c(C(=O)Nc3ccccc3C)c12 [NCGC00115715-01]	4.73
CCc1cc(=O)oc2cc(C)cc(OCC(=O)NCC(O)c3ccccc3)c12 (stereo not shown) [MLS001158251-01]	6.68
COc1ccc(NC(=O)c2c(C)oc3ccc(O)c(CN4CCCC(C)C4)c23)cc1Cl (stereo not shown) [NCGC00115530-01]	0.944
CCOCCCNc1nc2cc(OC)c(OC)cc2c2nc(-c3ccccc3)nn12 [NCGC00112857-01]	0.211
CCN1CCN(c2cc(C)c3cc(NC(=O)c4ccc(Br)o4)ccc3n2)CC1 [MLS000878990-01]	6.68
Cc1ccc(C)c(C(=O)N2CCC3(CC2)NC(c2ccc(Cl)cc2)=NO3)c1 [NCGC00447013-01]	9.44
CC1=C[C@@H](CN2CCCC2)[C@H](C(C)C)C[C@H]1Cc1nnc(-c2ccc([N+](=O)[O-])cc2)o1 [NCGC00395425-01]	3.85
Cc1c(CN2CC(Oc3ccccc3C(=O)NCc3ccccc3)C2)cnn1C [NCGC00458092-01]	4.22
COCCc1nn2c(=O)cc(COC(=O)C(c3ccccc3)c3ccccc3)nc2s1 [NCGC00129785-01]	2.66
CCO[C@H]1OC(C(=O)N2CCN(Cc3ccc4c(c3)OCO4)CC2)=C[C@@H](c2cn(C(C)=O)c3ccccc23)[C@@H]1CCCO [MLS000834466-01]	8.41

SMILES	AC50 [µM]
COc1ccc2[nH]cc(CCNC(=O)C3(Cc4ccccc4)CCCCC(=O)N3)c2c1 (stereo not shown) [NCGC00456177-01]	5.96
CCOC(=O)c1sc(NC(=O)C(C)Sc2nc(-c3ccccc3)cc(C(F)(F)F)n2)c(C(=O)OC)c1C (stereo not shown) [NCGC00101272-01]	2.37
CC(C)(C)c1ccc(C(=O)Nc2ccc(C(O)[C@H]3COCC(=O)N3Cc3ccccn3)cc2)cc1 (stereo partly shown) [NCGC00392498-01]	5.31
COC(=O)C1=C(c2ccc(OC(F)(F)F)cc2)C[C@@H]2CC[C@H]1N2C(=O)NCc1cccc2ccccc12 [MLS002302720-01]	3.35
CC(C)[S+](=O)([O-])N1CCC(N2CC(OCC3CC3)C23CCCCC3)CC1 (stereo not shown) [NCGC00463417-01]	15
O=C(NCC(c1ccco1)N1CCCC1)c1ccc(Cl)cc1 (stereo not shown) [MLS000570686-01]	8.41
COC(=O)c1ccc2nc(C)cc(Nc3ccc(O)cc3)c2c1 [NCGC00099848-01]	9.44
CC(C)[C@@H]1CN([S+](=O)([O-])c2ccc(Cl)cc2Cl)C[C@H]1N(C)C [NCGC00445159-01]	6.68
O=C(Nc1ccccc1C(F)(F)F)c1cc(-c2ccccc2O)on1 [MLS000087293-01]	2.99
COc1ccc(-c2cn3c(n2)sc2cc(C(=O)NCCCN4CCCCC4)ccc23)cc1 [NCGC00121823-01]	4.73
O=C1CC(c2ccccc2)N(C(=O)CNC(=O)c2ccc3[nH]ccc3c2)CCCCCN1 (stereo not shown) [NCGC00465493-01]	15
C=CC/N=C(\S)N1CCN(c2ccc([N+](=O)[O-])cc2)CC1 [MLS000581348-01]	4.22
CC(C)CN(Cc1cc(=O)oc2cc3c(cc12)CCCC3)CC(C)C [MLS000763058-01]	15
Cc1noc(C)c1-c1cc2cc(CN(C)C)oc2c(Nc2cccnc2)n1 [NCGC00417472-01]	12.2
CCN(C(=O)CSc1nc(-c2ccc(C(C)C)cc2)no1)c1ccccc1 [NCGC00127904-01]	0.944
CCOc1cccc(C2c3[nH]c4ccccc4c3CCN2C(=O)CSCc2ccc(F)cc2)c1 (stereo not shown) [NCGC00134633-01]	15
COc1ccc(-c2ccc3ncc(Nc4ccnc(N5CCOCC5)c4)n3n2)cn1 [NCGC00412623-01]	4.85
COc1ccccc1-c1nnc2n1C(C(=O)NCCc1ccc(Cl)cc1)CC2 (stereo not shown) [NCGC00375512-01]	3.35
CCN(C(=O)Cn1c(=O)n(Cc2ccc3c(c2)OCO3)c(=O)c2ccc(C(=O)NC3CCCCC3)cc21)c1cccc(C)c1 [NCGC00108796-01]	6.68
COc1ccc(C(=O)Nc2nc3c(s2)C[C@@H]2[C@](C)(CO)[C@H](O)CC[C@@]2(C)[C@@H]3CC(=O)NCc2ccco2)cc1 [NCGC00421299-01]	2.66
COc1cc(NC(=O)c2ccc(N)nc2)cc(C(=O)Nc2cccc(C(F)(F)F)c2)c1 [MLS003105961-01]	5.31
O=C(c1nnc(COc2ccc(OC(F)(F)F)cc2)n1-c1ccccc1)N1CCC[C@@H]1C(c1ccccc1)c1ccccc1 [NCGC00415795-01]	8.41
COc1ccc(Oc2c(C(F)(F)F)oc3c(CN4CCCC(C)C4)c(O)ccc3c2=O)cc1 (stereo not shown) [NCGC00101510-01]	2.37
CN(Cc1ccc(-n2cccn2)cc1)CC1CCN(CCc2ccc(F)cc2)CC1 [NCGC00425928-01]	10.6
Cc1ccc(CN2C3CCCC2CC(NC(=O)Nc2cccc(F)c2)C3)cc1 (stereo not shown) [MLS000709814-01]	10.6
